In ChEMBL document CHEMBL5154737, “Semisynthesis and biological evaluation of (+)-sclerotiorin derivatives as antitumor agents for the treatment of hepatocellular carcinoma” (Eur J Med Chem, 2022) one finds Activity, IC50 and viability data, which are given here for 28 compounds.

Counter-ions that a name gives are not always drawn.

In data set [1] the test system is Bel-7402. Put plainly: Cytotoxicity against human Bel-7402 cells assessed as inhibition rate at 5 uM incubated for 72 hrs by MTT assay relative to control. In kind it is functional. Set-up: scale not given: the % may be the effect or the level left.
A further data set concerns ECa-109 cell line. Put plainly: Cytotoxicity against human Eca-109 cells assessed as reduction in cell viability incubated for 72 hrs by MTT assay. In kind it is functional, cell-based. As to conditions: ECa-109, 72 h.
Another data set has as its system HeLa. Put plainly: Cytotoxicity against human HeLa cells assessed as reduction in cell viability incubated for 72 hrs by MTT assay. In kind it is functional, cell-based.
Data set [2] can be described thus: Cytotoxicity against human HepG2 cells assessed as reduction in cell viability incubated for 72 hrs by MTT assay. In kind it is toxicity, cell-based.
Data set [3] relates to Bel-7402. Put plainly: Cytotoxicity against human Bel-7402 cells assessed as reduction in cell viability incubated for 72 hrs by MTT assay. In kind it is functional, cell-based. The conditions noted are these: Bel-7402, 72 h.
The nature of data set [4]: Cytotoxicity against human Biu-87 cells assessed as reduction in cell viability incubated for 72 hrs by MTT assay. As to conditions: BIU87, 72 h. In kind it is functional, cell-based.
For a further data set, the system named is PANC-1. Put plainly: Cytotoxicity against human PANC-1 cells assessed as reduction in cell viability incubated for 72 hrs by MTT assay. In kind it is functional, cell-based. The conditions noted are these: PANC-1, 72 h.
Data set [5] concerns Bel-7402. Put plainly: cells. As to conditions: Homo sapiens, Bel-7402, 24 h, read-out: Activity.

Take `CC[C@H](C)/C=C(C)/C=C/C1=CC2=C(Cl)C(=O)[C@](C)(OC(C)=O)C(=O)C2=CN1c1cc(OC)c(OC)c(OC)c1`: the Activity in the data set with Bel-7402 [1] worked out at 9.61%.

Turning to `COc1cccc2c1C(=O)c1c(O)c3c(c(O)c1C2=O)C[C@@](O)(C(=O)CO)C[C@@H]3O[C@H]1C[C@H](N)[C@H](O)[C@H](C)O1` [DOXORUBICIN HYDROCHLORIDE], the half-inhibitory concentration (IC50) in the data set on ECa-109 cell line came out at 0.201 µM; with HeLa it was 0.602 µM; in the data set on Bel-7402 [3], 0.369 µM. Moreover, the half-inhibitory concentration (IC50) at 72 h in data set [2] came to 0.45 µM.

In the case of `CC[C@H](C)/C=C(C)/C=C/C1=CC2=C(Cl)C(=O)[C@](C)(OC(C)=O)C(=O)C2=CN1Cc1ccc(C(F)(F)F)cc1`, the Activity with Bel-7402 [1] stood at 44.16%. For the compound `CC[C@H](C)/C=C(C)/C=C/C1=CC2=C(Cl)C(=O)[C@](C)(O)C(=O)C2=CN1Cc1ccc(C(F)(F)F)cn1`, the Activity in the data set on Bel-7402 [1] is 10.55%. As to `CC[C@H](C)/C=C(C)/C=C/C1=CC2=C(Cl)C(=O)[C@](C)(O)C(=O)C2=CN1c1cc(OC)cc(OC)c1`, the Activity in the data set on Bel-7402 [1] is reported as 11.14%. For `CC[C@H](C)/C=C(C)/C=C/C1=CC2=C(Cl)C(=O)[C@](C)(OC(C)=O)C(=O)C2=CN1Cc1ccc(OC(F)(F)F)cc1`, the Activity in the data set on Bel-7402 [1] was 27.46%.

Regarding `C=CCN1C=C2C(=O)[C@@](C)(OC(C)=O)C(=O)C(Cl)=C2C=C1/C=C/C(C)=C/[C@@H](C)CC`, the Activity with Bel-7402 [1] turned out to be 8.65%. As to `CC[C@H](C)/C=C(C)/C=C/C1=CC2=C(Cl)C(=O)[C@](C)(O)C(=O)C2=CN1Cc1ccc(C(F)(F)F)nc1`, the Activity in the data set with Bel-7402 [1] came out at 12.09%. With `CC[C@H](C)/C=C(C)/C=C/C1=CC2=C(Cl)C(=O)[C@](C)(OC(C)=O)C(=O)C2=CN1Cc1ccc(C(F)(F)F)nc1`, the Activity in the data set with Bel-7402 [1] worked out at 21.53%. In the case of `CC[C@H](C)/C=C(C)/C=C/C1=CC2=C(Cl)C(=O)[C@](C)(O)C(=O)C2=CN1CCc1cccc(C(F)(F)F)c1`, the Activity in the data set with Bel-7402 [1] is listed as 45.76%.

Turning to `CC[C@H](C)/C=C(C)/C=C/C1=CC2=C(Cl)C(=O)[C@](C)(O)C(=O)C2=CN1Cc1ccc(C)cc1`, the Activity with Bel-7402 [1] was determined as 20.52%. On the same count and under the same terms, to `CC[C@H](C)/C=C(C)/C=C/C1=CC2=C(Cl)C(=O)[C@](C)(OC(C)=O)C(=O)C2=CN1Cc1ccc(C(F)(F)F)cn1` belongs 21.49%; to `CC[C@H](C)/C=C(C)/C=C/C1=CC2=C(Cl)C(=O)[C@](C)(OC(C)=O)C(=O)C2=CN1c1ccc(OC)c(OC)c1`, 8.16%. For `CC[C@H](C)/C=C(C)/C=C/C1=CC2=C(Cl)C(=O)[C@](C)(O)C(=O)C2=CN1Cc1ccc(C(F)(F)F)cc1`, the half-inhibitory concentration (IC50) was 1.48 µM in the data set with ECa-109 cell line; 2.4 µM with HeLa; 3.1 µM in data set [4]; 1.44 µM in the data set with PANC-1; 1.45 µM in the data set with Bel-7402 [3]. The concentration for half-maximal inhibition (IC50) at 72 h in data set [2] was found to be 3.36 µM. In addition, in the data set on Bel-7402 [1], the Activity was determined as 81.73%. On to `CC[C@H](C)/C=C(C)/C=C/C1=CC2=C(Cl)C(=O)[C@](C)(O)C(=O)C2=CN1c1ccc(C(F)(F)F)cc1`, for which the Activity in the data set with Bel-7402 [1] came out at 63.16%.

As for `CC[C@H](C)/C=C(C)/C=C/C1=CC2=C(Cl)C(=O)[C@](C)(OC(C)=O)C(=O)C2=CN1c1cc(OC)cc(OC)c1`, the Activity with Bel-7402 [1] was 7.94%.

For `CC[C@H](C)/C=C(C)/C=C/C1=CC2=C(Cl)C(=O)[C@](C)(OC(C)=O)C(=O)C2=CN1Cc1ccc(OC)cc1`, in the data set with Bel-7402 [1], the Activity came to 6.58%.

Take `CC[C@H](C)/C=C(C)/C=C/C1=CC2=C(Cl)C(=O)[C@](C)(OC(C)=O)C(=O)C2=CN1c1ccc(C(F)(F)F)cc1`: in the data set with Bel-7402 [1], the Activity came to 28.9%. Turning to `CC[C@H](C)/C=C(C)/C=C/C1=CC2=C(Cl)C(=O)[C@](C)(OC(C)=O)C(=O)C2=CN1CCc1cccc(C(F)(F)F)c1`, the Activity in the data set on Bel-7402 [1] was 35.93%. Turning to `CC[C@H](C)/C=C(C)/C=C/C1=CC2=C(Cl)C(=O)[C@](C)(OC(C)=O)C(=O)C2=CN1c1ccc(OC)cc1`, in the data set on Bel-7402 [1], the Activity came out at 7.45%. As to `CC[C@H](C)/C=C(C)/C=C/C1=CC2=C(Cl)C(=O)[C@](C)(OC(C)=O)C(=O)C2=CN1Cc1ccc(C)cc1`, the Activity in the data set with Bel-7402 [1] is 16.2%. On to `CC[C@H](C)/C=C(C)/C=C/C1=CC2=C(Cl)C(=O)[C@](C)(O)C(=O)C2=CN1c1cc(OC)c(OC)c(OC)c1`, for which, in the data set on Bel-7402 [1], the Activity stood at 11.27%. Consider `CC[C@H](C)/C=C(C)/C=C/C1=CC2=C(Cl)C(=O)[C@](C)(O)C(=O)C2=CN1Cc1ccc(OC)cc1`, for which, in the data set on Bel-7402 [1], the Activity is 36.51%.

In the case of `CC[C@H](C)/C=C(C)/C=C/C1=CC2=C(Cl)C(=O)[C@](C)(O)C(=O)C2=CN1c1ccc(OC)c(OC)c1`, the Activity with Bel-7402 [1] was found to be 5.75%. On to `C#CCN1C=C2C(=O)[C@@](C)(OC(C)=O)C(=O)C(Cl)=C2C=C1/C=C/C(C)=C/[C@@H](C)CC`, for which the Activity in the data set with Bel-7402 [1] was 6.81%. As to `CC[C@H](C)/C=C(C)/C=C/C1=CC2=C(Cl)C(=O)[C@](C)(O)C(=O)C2=CN1c1ccc(OC(F)(F)F)cc1`, in the data set on Bel-7402 [1], the Activity is recorded as 43.16%.

Regarding `CC[C@H](C)/C=C(C)/C=C/C1=CC2=C(Cl)C(=O)[C@](C)(OC(C)=O)C(=O)C2=CN1c1ccc(OC(F)(F)F)cc1`, the Activity in the data set with Bel-7402 [1] was 22.81%. Take `N#CC(=C(/N)Sc1ccccc1N)/C(C#N)=C(\N)Sc1ccccc1N`: in the data set on Bel-7402 [5], the viability at 20 µM is 88.3%.
